Source: EPA's ToxValDB 9.5
Where “and” joins values, the source holds several entries; their conditions need not be identical. Identical values can stand only once.

Tested on: Rattus norvegicus
Conditions: for LC50 / LD50: acute
[1] = short-term, duration: 28 days, oral, gavage, Wistar
[2] = subchronic, duration: 13 weeks, oral, gavage, Sprague-Dawley
[3] = reproduction developmental, duration: 83 days, oral, gavage, Sprague-Dawley
[4] = subchronic, duration: 90 days, oral, diet

**Q.** `CC(C)(c1ccccc1)c1ccc(Nc2ccc(C(C)(C)c3ccccc3)cc2)cc1` was tested. Which LC50 (oral, gavage) did it give?
**A.** > 10000 mg/kg

**Q.** `CC(C)CCCCCCCOC(=O)CCCCCCCC(=O)OCCCCCCCC(C)C` [Diisodecyl azelaate] was tested. Which LD50 (oral, gavage, Wistar) did it give?
**A.** > 2000 mg/kg

**Q.** Which LD50 (dermal, Wistar) does the source give for `CCCCCCC(C)(C)C(=O)OCC1CO1` (centres undefined) [Glycidyl neodecanoate] here?
**A.** > 4000 mg/kg

**Q.** And the LD50 (oral, gavage, Wistar)?
**A.** > 10000 mg/kg

**Q.** With `CC(C)(CO)CO` [2,2-Dimethylpropane-1,3-diol] as the compound, how does the LD50 (oral) read?
**A.** 3200 mg/kg

**Q.** What about the NOAEL (reproduction developmental, oral, Sprague-Dawley, generation: F0) of the same compound?
**A.** 1000 mg/kg-day

**Q.** What about the NOAEL (reproduction developmental, oral, Sprague-Dawley, generation: F1) of the same compound?
**A.** 1000 mg/kg-day

**Q.** And the NOAEL (reproduction developmental, oral, gavage, Sprague-Dawley)?
**A.** 100 mg/kg-day

**Q.** And the NOAEL (short-term, duration: 2 weeks, oral, gavage, Wistar)?
**A.** 1000 mg/kg-day

**Q.** `CC(C)(C)c1cccc(C(C)(C)C)c1O` [2,6-Di-tert-butylphenol] was tested. Which LD50 (oral, gavage) did it give?
**A.** 6290 mg/kg

**Q.** What about the LD50 (oral, gavage, Sprague-Dawley) of the same compound?
**A.** > 5000 mg/kg

**Q.** What about the NOAEL (developmental, oral, gavage, Wistar) of the same compound?
**A.** > 750 mg/kg-day

**Q.** And the NOAEL (reproduction developmental, oral, gavage, Wistar)?
**A.** 150 mg/kg-day

**Q.** What about the NOAEL [1] of the same compound?
**A.** 15 mg/kg-day

**Q.** With `CCCCCCCCCCc1cc(Oc2ccc(S(=O)(=O)O)cc2)ccc1S(=O)(=O)O` [Decyl(sulfophenoxy)benzenesulfonic acid] as the compound, how does the LD50 (oral, gavage, Fischer 344) read?
**A.** ≥ 1000 mg/kg and ≤ 2000 mg/kg

**Q.** What about the LD50 (oral, gavage, Sprague-Dawley) of the same compound?
**A.** 3010 mg/kg

**Q.** `CCCCN(CCCC)c1ccc(C(=O)c2ccccc2C(=O)O)c(O)c1` [2-[4-(Dibutylamino)-2-hydroxybenzoyl]benzoic acid] was tested. Which LD50 (dermal, Sprague-Dawley) did it give?
**A.** > 2000 mg/kg

**Q.** And the LD50 (oral, gavage, Sprague-Dawley)?
**A.** > 5000 mg/kg

**Q.** And the LOAEL (reproduction developmental, duration: 21 weeks, oral, gavage, M, Sprague-Dawley)?
**A.** 250 mg/kg-day

**Q.** And the LOAEL (reproduction developmental, duration: 21 weeks, oral, gavage, Sprague-Dawley, generation: F1)?
**A.** 250 mg/kg-day

**Q.** What about the LOAEL (short-term, duration: 28 days, oral, gavage, M, Sprague-Dawley) of the same compound?
**A.** 1000 mg/kg-day

**Q.** What about the LOAEL [2] of the same compound?
**A.** 250 mg/kg-day

**Q.** And the NOAEL [2]?
**A.** 50 mg/kg-day

**Q.** For `CCCCCCCCC(=O)Oc1ccccc1S(=O)(=O)[O-].[Na+]` [Sodium (nonanoyloxy)benzenesulfonate], which LOAEC [3] is on record?
**A.** 100 mg/kg-day

**Q.** What about the NOAEL [3] of the same compound?
**A.** 1000 mg/kg-day

**Q.** Which LD50 (oral, gavage, ChR:CD) does the source give for `CCCCCCC(=O)OCCOCCOCCOCCOC(=O)CCCCCC` [Tetraethylene glycol diheptanoate] here?
**A.** > 25000 mg/kg

**Q.** What about the LD50 (oral, gavage, ChRCD) of the same compound?
**A.** > 25000 mg/kg

**Q.** What about the LD50 (oral, gavage, Crl:CD(SD)) of the same compound?
**A.** > 24500 mg/kg

**Q.** And the LD50 (oral, gavage, Wistar)?
**A.** > 2000 mg/kg

**Q.** And the LOAEL (short-term, duration: 4 weeks, inhalation, Wistar)?
**A.** 1.1 mg/L

**Q.** And the NOAEL [1]?
**A.** 1000 mg/kg-day

**Q.** Which results are given for `OP(O)c1ccccc1` [Phenylphosphinic acid]?
**A.** LD50 (oral, gavage): 1470 mg/kg and 1710 mg/kg; NOAEL (subchronic, duration: 31 days, oral, diet): 960 mg/kg-day

**Q.** Which LC50 (inhalation, Wistar) does the source give for `C=C(C)CC` [2-Methylbutene] here?
**A.** > 61000 ppm

**Q.** What about the NOAEL (reproduction developmental, inhalation, Sprague-Dawley) of the same compound?
**A.** 7000 ppm

**Q.** Which LD50 (oral, gavage, Fischer 344) does the source give for `Clc1nc(Cl)c(Cl)c(Cl)c1Cl` [Pentachloropyridine] here?
**A.** 435 mg/kg

**Q.** And the NOAEL (reproduction developmental, duration: 15 days, oral, gavage, F, Sprague-Dawley)?
**A.** 50 mg/kg-day

**Q.** What about the LOAEL [4] of the same compound?
**A.** 30 mg/kg-day

**Q.** What about the NOAEL [4] of the same compound?
**A.** 10 mg/kg-day

**Q.** Which LD50 (oral, gavage) does the source give for `N#Cc1nc(Cl)c(Cl)c(Cl)c1Cl` [3,4,5,6-Tetrachloropyridine-2-carbonitrile] here?
**A.** ≥ 1000 mg/kg and ≤ 2000 mg/kg

**Q.** For `CC12CCCCC1C(=O)OC2=O` (centres undefined) [Methylhexahydrophthalic anhydride], which LD50 (oral) is on record?
**A.** 3300 mg/kg

**Q.** What does the source list for `CC(C)(C)c1cc(CCC(=O)NNC(=O)CCc2cc(C(C)(C)C)c(O)c(C(C)(C)C)c2)cc(C(C)(C)C)c1O`?
**A.** LD50 (oral): > 7000 mg/kg; NOAEL (short-term, duration: 28 days, oral, diet): > 10000 ppm; NOAEL (subchronic, duration: 3 months, oral, diet): 38.4 mg/kg-day

**Q.** `CCCCCCCCCCCCCOC(=O)CCSCCC(=O)OCCCCCCCCCCCCC` [Di(tridecyl) thiodipropionate] was tested. Which LD50 (oral) did it give?
**A.** > 2000 mg/kg

**Q.** `CC(=O)O.CC(C)CCCCCCCOCCCN` [1-Propanamine, 3-(isodecyloxy)-, acetate] was tested. Which LD50 (oral, gavage, Sprague-Dawley) did it give?
**A.** 1030 mg/kg and 1460 mg/kg and 1220 mg/kg

**Q.** For `O=C(O)c1cccc(C(=O)O)c1` [1,3-Benzenedicarboxylic acid], which NOAEL (developmental, duration: 10 days, Inhalation, Sprague-Dawley) is on record?
**A.** > 10 mg/m3

**Q.** Which LD50 (oral, Sprague-Dawley) does the source give for `CC(C)(N)C#N` [2-Amino-2-methylpropionitrile] here?
**A.** ≥ 10 mg/kg and ≤ 30 mg/kg

**Q.** What about the NOAEL (short-term, duration: 2 weeks, inhalation, M, Sprague-Dawley) of the same compound?
**A.** 75.7 mg/m3

**Q.** With `Cc1ccc(C)c(O)c1C` [2,3,6-Trimethylphenol] as the compound, how does the LD50 (oral, gavage) read?
**A.** > 2000 mg/kg

**Q.** How did the NOAEL (reproduction developmental, duration: 0 days, dermal, non-occlusive, F, Sprague-Dawley) turn out when `CCCCCCC([O-])CCCCCCCCCCC(=O)OC.[Li+]` (centres undefined) [Lithium methyl 12-hydroxystearate] was run?
**A.** > 2000 mg/kg-day

**Q.** What about the NOAEL (reproduction developmental, duration: 10 weeks, dermal, non-occlusive, M, Fischer 344) of the same compound?
**A.** < 500 mg/kg-day

**Q.** What about the NOAEL (subchronic, duration: 13 weeks, dermal, non-occlusive, F, Sprague-Dawley) of the same compound?
**A.** 500 mg/kg-day

**Q.** `O=[N+]([O-])c1ccc(C=Cc2ccc([N+](=O)[O-])cc2S(=O)(=O)[O-])c(S(=O)(=O)[O-])c1.[Na+].[Na+]` [Disodium 4,4'-dinitro-2,2'-stilbenedisulfonate] was tested. Which LD50 (oral) did it give?
**A.** > 16000 mg/kg
